What all share (format): biochemical
Assay [1] concerns the target T1, human HER2 (Homo sapiens, UniProt P04626).
T1 construct: human HER2 amino acids 679-1255; host or cells: Sf9 insect cells (baculovirus)
The assay can be described thus: HER2 enzymatic activity assay. How it is done: (d) An In Vitro Assay which Determines the Ability of a Test Compound to Inhibit HER2 Enzymatic Activity.
10 nM HER2 and 0.1 mg/ml polyEY were placed in the reaction buffer and 2 mM MnCl2, 1 μM ATP and 1% DMSO final were added. The reaction mixture was incubated for 2 hours at room temperature.
Purity>90% by SDS PAGE and Coomassie blue staining. MW=91.6 kDa. Specific Activity of 40 U/mg, where one unit of activity is defined as 1 nmol phosphate incorporated into 30 ug/ml Poly (Glu:Tyr)4:1 substrate per minute at 30° C. with a final ATP concentration of 100 μM. Enzyme is in 25 mM Tris-HCl, pH 8.0, 100 mM NaCl, 0.05% Tween-20, 50% glycerol, 10 mM reduced glutathione, and 3 mM DTT.

The target in assay [2] is T2, human VEGFR2 (Homo sapiens, UniProt P35968).
T2 construct: kinase domain (amino acids 790 to end) fragment; 6xHis (N); made in house; host or cells: Sf21 insect cells (baculovirus)
The assay can be described thus: VEGFR2/KDR radioisotope kinase assay. As to the method:
(a) An In Vitro Assay which-Determines the Ability of a Test Compound to Inhibit a Receptor Tyrosine Kinase.
The ability of compounds to inhibit receptor kinase (VEGFR2 and PDGFR-beta) activity was assayed using standard radioisotope assay for kinase. […] The proteins were purified using Ni2+/NTA agarose affinity column to purity
>85% as determined by coomassie blue-stained SDS-PAGE gel. For VEGFR2/KDR assay, p33 ATP tracers were incubated with purified recombinant VEGFR2 kinase to monitor the enzyme activity. In this assay, reactions were carried out in the presence of 0.1 mg/ml VEGFR2 kinase and 0.33 mg/ml myelin basic protein. The reaction was carried out at 30° C. for 120 minutes in a final assay condition contained 50 mM Tris-HCl, pH 7.5, 300 mM NaCl, 0.1 mM EGTA, 0.03% Brij 35, 270 mM sucrose, 1 mM benzamidine, 0.2 mM PMSF, 0.1% 2-mercaptoethanol and 100 μM ATP. An equal volume of 25% TCA was added to stop the reaction and precipitate the labeled proteins. Precipitated proteins were trapped onto glass fiber B filterplates and excess unlabeled p33 ATP was washed off. The plates were allowed to air-dry prior to the addition of 30 uL/well of Packard Microscint 20. The amount of incorporated isotope was measured using a Perkin Elmer TopCount plate reader. Different concentrations of compounds were added to reaction to assess the activity of compounds to inhibit VEGFR2 kinase. IC50 was calculated using Prism software with sigmoidal dose-response curve fitting.

For assay [3], the system named is HDAC. The assay can be described thus: HDAC fluorimetric assay kit (HeLa nuclear extract). How it is done: (b) An In Vitro Assay which Determines the Ability of a Test Compound to Inhibit HDAC Enzymatic Activity.
HDAC inhibitors were screened using an HDAC fluorimetric assay kit (AK-500, Biomol, Plymouth Meeting, Pa.). Test compounds were dissolved in dimethylsulphoxide (DMSO) to give a 20 mM working stock concentration. Fluorescence was measured on a WALLAC Victor 2 plate reader and reported as relative fluorescence units (RFU). Data were plotted using GraphPad Prism (v4.0a) and IC50's calculated using a sigmoidal dose response curve fitting algorithm. Each assay was setup as follows: Defrosted all kit components and kept on ice until use. Diluted HeLa nuclear extract 1:29 in Assay Buffer (50 mM Tris/Cl, pH 8.0, 137 mM NaCl, 2.7 mM KCl, 1 mM MgCl2). Prepared dilutions of Trichostatin A (TSA, positive control) and tested compounds in assay buffer (5× of final concentration). Diluted Fluor de Lys™ Substrate in assay buffer to 100 uM (50 fold=2× final). Diluted Fluor de Lys™ developer concentrate 20-fold (e.g. 50 μl plus 950 μl Assay Buffer) in cold assay buffer. Second, diluted the 0.2 mM Trichostatin A 100-fold in the 1× Developer (e.g. 10 μl in 1 ml; final Trichostatin A concentration in the 1× Developer=2 μM; final concentration after addition to HDAC/Substrate reaction=1 μM). Added Assay buffer, diluted trichostatin A or test inhibitor to appropriate wells of the microtiter plate. Added diluted HeLa extract or other HDAC sample to all wells except for negative controls. Allowed diluted Fluor de Lys™ Substrate and the samples in the microtiter plate to equilibrate to assay temperature (e.g. 25 or 37° C. Initiated HDAC reactions by adding diluted substrate (25 μl) to each well and mixing thoroughly. Allowed HDAC reactions to proceed for 1 hour and then stopped them by addition of Fluor de Lys™ Developer (50 μl). Incubated plate at room temperature (25° C.) for 10-15 min. Read samples in a microtiter-plate reading fluorimeter capable of excitation at a wavelength in the range 350-380 nm and detection of emitted light in the range 440-460 nm.

The mark [4] stands for this setting: 1 μM ATP, read-out: HER2/ErbB IC50.
The mark [5] stands for this setting: 100 μM ATP, read-out: VEGFR2 IC50.

Read-outs that look alike come from different tables or passages of the source.

T1 sequence (P04626 679-1255): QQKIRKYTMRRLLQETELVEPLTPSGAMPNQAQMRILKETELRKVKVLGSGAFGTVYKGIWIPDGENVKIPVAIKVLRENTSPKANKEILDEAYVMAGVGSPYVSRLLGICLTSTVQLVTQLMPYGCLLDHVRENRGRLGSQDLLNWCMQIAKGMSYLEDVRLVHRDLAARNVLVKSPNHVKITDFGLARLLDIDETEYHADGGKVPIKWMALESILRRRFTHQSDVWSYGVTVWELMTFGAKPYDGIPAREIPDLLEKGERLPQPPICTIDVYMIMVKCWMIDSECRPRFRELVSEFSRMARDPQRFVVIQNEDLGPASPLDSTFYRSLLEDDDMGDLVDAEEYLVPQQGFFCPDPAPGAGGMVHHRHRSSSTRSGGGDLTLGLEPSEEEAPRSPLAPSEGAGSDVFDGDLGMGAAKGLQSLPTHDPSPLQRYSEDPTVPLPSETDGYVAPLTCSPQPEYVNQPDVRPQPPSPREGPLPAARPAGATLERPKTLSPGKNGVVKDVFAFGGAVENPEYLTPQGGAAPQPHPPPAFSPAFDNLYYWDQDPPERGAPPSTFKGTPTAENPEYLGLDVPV
T2 sequence (P35968 790-1356 limits assumed): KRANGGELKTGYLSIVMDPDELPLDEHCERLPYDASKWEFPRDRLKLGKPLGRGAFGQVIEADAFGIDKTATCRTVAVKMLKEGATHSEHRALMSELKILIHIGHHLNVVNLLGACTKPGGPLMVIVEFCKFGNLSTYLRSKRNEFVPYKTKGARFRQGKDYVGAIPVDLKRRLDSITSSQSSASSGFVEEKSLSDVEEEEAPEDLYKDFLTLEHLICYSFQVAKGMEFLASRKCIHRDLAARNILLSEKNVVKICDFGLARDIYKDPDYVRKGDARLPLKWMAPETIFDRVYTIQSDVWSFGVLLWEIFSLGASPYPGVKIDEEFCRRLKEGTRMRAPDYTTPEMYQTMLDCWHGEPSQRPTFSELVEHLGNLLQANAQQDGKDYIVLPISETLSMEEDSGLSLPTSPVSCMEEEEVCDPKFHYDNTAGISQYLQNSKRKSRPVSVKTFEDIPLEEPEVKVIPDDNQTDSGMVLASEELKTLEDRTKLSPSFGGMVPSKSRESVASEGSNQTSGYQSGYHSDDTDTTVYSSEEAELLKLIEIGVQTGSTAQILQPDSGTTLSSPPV

Consider `COc1cc2ncnc(Nc3ccc4occc4c3)c2cc1OCCCCCCC(=O)NO` [Compound 2, 7-(4-(benzofuran-5-ylamino)-7-methoxyquinazolin-6-yloxy)-N-hydroxyheptanamide], for which the IC50 is less than 100 nM in assay [1] (setting [4]), 1000 to 10000 nM in assay [2] (setting [5]) and less than 100 nM in assay [3].
As for `COc1cc2c(Oc3ccc4[nH]c(C)cc4c3F)ncnc2cc1OCCCCCC(=O)NO` [Compound 10, 6-(4-(4-fluoro-2-methyl-1H-indol-5-yloxy)-6-methoxyquinazolin-7-yloxy)-N-hydroxyhexanamide], the values for the IC50 in assay [1] (setting [4]), in assay [2] (setting [5]) and in assay [3] were 100 to 1000 nM, less than 100 nM and 100 to 1000 nM, respectively.
With `COc1cc2c(Oc3ccc4[nH]c(C)cc4c3F)ncnc2cc1OCCCCCCC(=O)NO` [Compound 11, 7-(4-(4-fluoro-2-methyl-1H-indol-5-yloxy)-6-methoxyquinazolin-7-yloxy)-N-hydroxyheptanamide], the values for the IC50 in assay [1], in assay [2] and in assay [3] were 1000 to 10000 nM, less than 100 nM and 100 to 1000 nM, respectively.
Consider `COc1cc2c(Nc3ccc4[nH]c(C)cc4c3F)ncnc2cc1OCCCCCC(=O)NO` [Compound 13, 6-(4-(4-fluoro-2-methyl-1H-indol-5-ylamino)-6-methoxyquinazolin-7-yloxy)-N-hydroxyhexanamide], for which the IC50 in assay [1] (setting [4]), in assay [2] (setting [5]) and in assay [3] was less than 100 nM in each case.
As to `COc1cc2c(Nc3ccc4[nH]c(C)cc4c3F)ncnc2cc1OCCCCCCC(=O)NO` [Compound 14, 7-(4-(4-fluoro-2-methyl-1H-indol-5-ylamino)-6-methoxy-quinazolin-7-yloxy)-N-hydroxyheptanamide], the IC50 in assay [1] (setting [4]) was 100 to 1000 nM; in assay [2] (setting [5]), less than 100 nM; in assay [3] it was less than 100 nM.
Take `Cc1cc2c(F)c(Oc3ncnc4cc(OCCCN5CCCC5)c(OCCCCCC(=O)NO)cc34)ccc2[nH]1` [Compound 16, 6-(4-(4-fluoro-2-methyl-1H-indol-5-yloxy)-7-(3-(pyrrolidin-1-yl)propoxy)quinazolin-6-yloxy)-N-hydroxyhexanamide]: the IC50 in assay [1] (setting [4]) was less than 100 nM; in assay [2] (setting [5]), less than 100 nM; in assay [3], 100 to 1000 nM.
`Cc1cc2c(F)c(Oc3ncnc4cc(OCCCN5CCCC5)c(OCCCCCCC(=O)NO)cc34)ccc2[nH]1` [Compound 17]: the IC50 in assay [1] (setting [4]) is 100 to 1000 nM; in assay [2] (setting [5]), less than 100 nM; in assay [3], less than 100 nM.
In the case of `Cc1cc2c(F)c(Nc3ncnc4cc(OCCCN5CCCC5)c(OCCCCC(=O)NO)cc34)ccc2[nH]1` [Compound 18, 5-(4-(4-fluoro-2-methyl-1H-indol-5-ylamino)-7-(3-(pyrrolidin-1-yl)propoxy)quinazolin-6-yloxy)-N-hydroxypentanamide], the IC50 in assay [1] (setting [4]) was less than 100 nM; in assay [2] (setting [5]), less than 100 nM; in assay [3] it was 100 to 1000 nM.
Take `Cc1cc2c(F)c(Nc3ncnc4cc(OCCCN5CCCC5)c(OCCCCCC(=O)NO)cc34)ccc2[nH]1` [Compound 19, 6-(4-(4-Fluoro-2-methyl-1H-indol-5-ylamino)-7-(3-(pyrrolidin-1-yl)propoxy)quinazolin-6-yloxy)-N-hydroxyhexanamide]: the IC50 in assay [1] (setting [4]) was less than 100 nM; in assay [2] (setting [5]), less than 100 nM; in assay [3], 100 to 1000 nM.
In the case of `Cc1cc2c(F)c(Nc3ncnc4cc(OCCCN5CCCC5)c(OCCCCCCC(=O)NO)cc34)ccc2[nH]1` [Compound 20, 7-(4-(4-Fluoro-2-methyl-1H-indol-5-ylamino)-7-(3-(pyrrolidin-1-yl)propoxy)quinazolin-6-yloxy)-N-hydroxyheptanamide], the IC50 in assay [1] (setting [4]) and in assay [2] (setting [5]) was less than 100 nM in each case.

These data come from patent publication US20090076044A1, “VEGFR INHIBITORS CONTAINING A ZINC BINDING MOIETY” (priority 2007, published 2009).
